Data as given in patent publication US4405743A, “Pyrazolylpyrimidine derivatives” (Hokko Chemical Industry Co., Ltd., priority 1981, dated 1983).
Converted amounts (≈) assume the structure as drawn. Read-outs that look alike come from different tables or passages of the source.

Key:
rice plant [1] = settings: blast curative test, 200 ppm
Sphaerotheca friliginea = assay: Effect of controlling cucumber powdery mildew, Experimental Example 4; type: in vivo; settings: sprayed liquid 200 ppm, 10 days after inoculation
Description: 10 ml of each of test liquids diluted to a predetermined concentration was sprayed over seedlings of a cucumber plant (variety: Sagami Hanpaku) grown up to the first leaf stage which has been soil cultured in an unglazed pot with a diameter of 9 cm in a green house. After allowing to stand overnight, the seedlings were sprayed for inoculation with a spore suspension of Sphaerotheca friliginea. Ten days after the inoculation, the rate of a lesion area (%) was checked and a control value was evaluated from the following equation. The degree of chemical injury against a cucumber plant was determined in the same manner as in Experimental Example.

rice plant [2] = settings: blast prevention test, 200 ppm
rice blast = settings: Annual Report of the Takeda's Research Institute, Vol. 24, pages 250-258 (1965); cited from earlier work
Pyricularia oryzae [3] = type: in vivo, Pyricularia oryzae on rice plant (variety: Asahi); settings: rice blast, curative treatment; sprayed liquid 200 ppm; 5 days after spraying
Pyricularia oryzae [4] = type: in vivo, Pyricularia oryzae on rice plant (variety: Asahi); settings: rice blast, prevention; 200 ppm; 5 days after inoculation
Cochliobolus miyabeanus [5] = assay: Effect of controlling rice brown spot, Experimental Example 3; type: in vivo, Cochliobolus miyabeanus on rice plant (variety: Asahi); settings: sprayed liquid 500 ppm, 5 days after inoculation
rice plant [6] = system: rice plant
[7] = Annual Report of the Takeda's Research Institute, Vol. 24, pages 250-258 (1965); cited from earlier work
Pyricularia oryzae [8] = assay: microbe, parasite or virus in culture; type: cell-based; settings: read-out: ED50 value
Botrytis cinerea = assay: Antimicrobial activity (mycelium growth inhibition, PDA medium); type: cell-based; settings: 24° C., read-out: ED50 value
Description: (§1) Experimental Example 5 (Test for Antimicrobial Activity Against Various Plant Phathogenic Fungi)
(§2) 1 ml of an acetone solution of each of test compounds and 20 ml of the PDA medium (50° C.) to prepare media containing the chemical in different concentrations, followed by charging into a petri dish with a diameter of 9 cm where it was solidified flat. On the central portion of the chemical-containing medium was inoculated a fungus-containing medium a piece of ager black-containing mycelia which was obtained by punching by means of a cork borer the tip portion of mycelia of each test fungus which had been cultured in advance in the PDA medium, followed by cultivating at 24° C. Two to six days after the cultivation, the diameter of the mycelia was measured and mycelium growth inhibiting rate was calculated from a comparison with that of a non-treated plot. The mycelium growth inhibiting rate was plotted on a logarithmic probability paper to determine an ED50 value.

Pellicularia sasakii = assay: as above; type: cell-based; settings: 24° C., read-out: ED50 value
Description: as §1, §2

Glomerella cingulata = assay: as above; type: cell-based; settings: Colletotrichum gloeosporioides, 24° C., read-out: ED50 value
Description: as §1, §2

[9] = system: Helminthosporium gramineum; assay: as above; type: cell-based; settings: 24° C., read-out: ED50 value
Description: as §1, §2

Sclerotinia sclerotiorum = assay: as above; type: cell-based; settings: 24° C., read-out: ED50 value
Description: as §1, §2

Penicillium digitatum = assay: as above; type: cell-based; settings: 24° C., read-out: ED50 value
Description: as §1, §2

Phoma lingam = assay: as above; type: cell-based; settings: Plenodomus lingam, 24° C., read-out: ED50 value
Description: as §1, §2

Endothia parasitica = assay: as above; type: cell-based; settings: Cryphonectria parasitica, 24° C., read-out: ED50 value
Description: as §1, §2

Alternaria padwikii = assay: as above; type: cell-based; settings: 24° C., read-out: ED50 value
Description: as §1, §2

Mycosphaerella melonis = assay: as above; type: cell-based; settings: 24° C., read-out: ED50 value
Description: as §1, §2

Curvularia sp. = assay: as above; type: cell-based; settings: 24° C., read-out: ED50 value
Description: as §1, §2

Diaporthe citri = assay: as above; type: cell-based; settings: 24° C., read-out: ED50 value
Description: as §1, §2

Fusarium nivale = assay: as above; type: cell-based; settings: Microdochium nivale, 24° C., read-out: ED50 value
Description: as §1, §2

Phizoctonia solani = assay: as above; type: cell-based; settings: 24° C., read-out: ED50 value
Description: as §1, §2

Sclerotinia fructigena = assay: as above; type: cell-based; settings: 24° C., read-out: ED50 value
Description: as §1, §2

Cochliobolus miyabeanus [10] = assay: as above; type: cell-based; settings: Bipolaris oryzae, read-out: ED50 value

SMILES | Degree of chemical injury (rice plant [1]) | Control Value (Sphaerotheca friliginea) [%] | Degree of chemical injury (rice plant [2]) | activity of controlling rice blast (rice blast) | Control Value (Pyricularia oryzae [3]) [%] | Degree of chemical injury (cucumber plant; 200 ppm) | Control Value (Pyricularia oryzae [4]) [%] | Control Value (Cochliobolus miyabeanus [5]) [%] | Degree of chemical injury (rice plant [6]; 500 ppm) | chemical injury [7] | IC50 (Pyricularia oryzae [8]) [µg/mL] | IC50 (Botrytis cinerea) [µg/mL] | IC50 (Pellicularia sasakii) [µg/mL] | IC50 (Glomerella cingulata) [µg/mL] | IC50 [9] [µg/mL] | IC50 (Sclerotinia sclerotiorum) [µg/mL] | IC50 (Penicillium digitatum) [µg/mL] | IC50 (Phoma lingam) [µg/mL] | IC50 (Endothia parasitica) [µg/mL] | IC50 (Alternaria padwikii) [µg/mL] | also measured
Cc1cc(O)nc(-n2nc(C)cc2C)n1 [Comparative Chemical 1, 2-(3,5-dimethyl-1-pyrazolyl)-4-methyl-6-hydroxypyrimidine, reference compound] | 5 | 53.2 | 5 | show an activity of controlling rice blast | 70 | 1 | 75 | 75 | 5 | violent chemical injury |  |  |  |  |  |  |  |  |  |  | 
Cc1cc(C)n(-c2nc(O)cc(-c3ccccc3)n2)n1 [Comparative Chemical 2, 2-(3,5-dimethyl-1-pyrazolyl)-4-phenyl-6-hydroxypyrimidine, reference compound] | 5 | 48.3 | 5 | show an activity of controlling rice blast | 71 | 1 | 76 | 73 | 5 | violent chemical injury |  |  |  |  |  |  |  |  |  |  | 
Cc1cc(SC#N)nc(-n2nc(C)cc2C)n1 [Comparative Chemical 3, 2-(3,5-dimethyl-1-pyrazolyl)-4-methyl-6-thiocyanopyrimidine] |  |  |  |  |  |  |  |  |  | violent chemical injury |  |  |  |  |  |  |  |  |  |  | 
Cc1cc(C)n(-c2nccc(Sc3ccccc3)n2)n1 [Compound 4] | 0 | 90 | 0 |  | 100 |  | 100 | 85 |  |  | 0.1 (≈ 0.354 µM) | 6.5 (≈ 23 µM) | 1.2 (≈ 4.25 µM) | 4.1 (≈ 14.5 µM) | 2.4 (≈ 8.5 µM) | 3.2 (≈ 11.3 µM) | 1.3 (≈ 4.6 µM) | 2.1 (≈ 7.44 µM) | 1.9 (≈ 6.73 µM) | 1.2 (≈ 4.25 µM) | Degree of chemical injury (cucumber plant; in vivo): 0; IC50 (Mycosphaerella melonis): 5.2 µg/mL (≈ 18.4 µM); IC50 (Curvularia sp.): 0.7 µg/mL (≈ 2.48 µM); IC50 (Diaporthe citri): 2.7 µg/mL (≈ 9.56 µM); IC50 (Fusarium nivale): 5.3 µg/mL (≈ 18.8 µM); IC50 (Phizoctonia solani): 1.1 µg/mL (≈ 3.9 µM); IC50 (Sclerotinia fructigena): 0.4 µg/mL (≈ 1.42 µM); Degree of chemical injury (rice plant [6]; in vivo): 0; IC50 (Cochliobolus miyabeanus [10]): 4.6 µg/mL (≈ 16.3 µM)
Cc1ccc(Oc2cc(C)nc(-n3nc(C)cc3C)n2)c(C)c1 [Compound 27] | 0 |  | 0 |  | 100 |  | 100 |  |  |  | 0.02 (≈ 0.0649 µM) | 9.8 (≈ 31.8 µM) | 1 (≈ 3.24 µM) | 6.7 (≈ 21.7 µM) | 3.6 (≈ 11.7 µM) | 4.8 (≈ 15.6 µM) | 1.2 (≈ 3.89 µM) | 3.7 (≈ 12 µM) | 6.3 (≈ 20.4 µM) | 1.9 (≈ 6.16 µM) | IC50 (Mycosphaerella melonis): 4.6 µg/mL (≈ 14.9 µM); IC50 (Curvularia sp.): 1.6 µg/mL (≈ 5.19 µM); IC50 (Diaporthe citri): 2.9 µg/mL (≈ 9.4 µM); IC50 (Fusarium nivale): 2.8 µg/mL (≈ 9.08 µM); IC50 (Phizoctonia solani): 1.1 µg/mL (≈ 3.57 µM); IC50 (Sclerotinia fructigena): 1.4 µg/mL (≈ 4.54 µM); IC50 (Cochliobolus miyabeanus [10]): 2.2 µg/mL (≈ 7.13 µM)
